Results published in patent publication EP0745599A2, “1-(3-Heterocyclylphenyl)-s-triazine-2,4,6-oxo or thiotrione herbicidal agents” (American Cyanamid Company, priority 1995, dated 1996).

Tests used:
Assay type in all cases: in vivo
Conditions in all cases: rated four to five weeks after treatment
[1] = tested on: TRITICUM AESTIVUM, CV. APOLLO; experiment: Preemergence herbicidal evaluation, TRZAWO (Wheat, Winter, CV. APOLLO)
Outline: (§1)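 Seeds mixed with potting soil were planted over about one inch of soil, then sprayed with aqueous acetone solution of test compound at about 0.125 to 0.50 kg per hectare. Cups were kept under standard greenhouse care, and plants were rated visually on a 0-9 scale versus control after four to five weeks.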

[2] = tested on: SETARIA VIRIDIS, (L) BEAU; experiment: Preemergence herbicidal evaluation, SETVI (Foxtail, Green)
Outline: as §1

[3] = tested on: AMBROSIA ARTEMISIIFOLIA, L.; experiment: Postemergence herbicidal evaluation, AMBEL (Ragweed, Common)
Method: (§2) In the tests, seedling plants are grown in jiffy flats for about two weeks. The test compounds are dispersed in 50/50 acetone/water mixtures containing 0.5% TWEEN®20, a polyoxyethylene sorbitan monolaurate surfactant of Atlas Chemical Industries, in sufficient quantities to provide the equivalent of about 0.125 kg to 0.500 kg per hectare of active compound when applied to the plants through a spray nozzle operating at 40 psi for a predetermined time. After spraying, the plants are placed on greenhouse benches and are cared for in the usual manner, commensurate with conventional greenhouse practices. From four to five weeks after treatment, the seedling plants are examined and rated according to the rating system set forth below. Where more than one test is involved for a given compound, the data are averaged.
(§3) Results of herbicide evaluation are expressed on a rating scale (0-9). The scale is based upon a visual observation of plant stand, vigor, malformation, size, chlorosis and overall plant appearance as compared with a control.

[4] = tested on: CHENOPODIUM ALBUM, L.; experiment: Preemergence herbicidal evaluation, CHEAL (Lambsquarters, Common)
Outline: as §1

[5] = tested on: ECHINOCHLOA CRUS-GALLI, (L) BEAU; experiment: Preemergence herbicidal evaluation, ECHCG (Barnyardgrass)
Outline: as §1

[6] = tested on: GLYCINE MAX(L)MERR. CV. WILLIAMS; experiment: Preemergence herbicidal evaluation, GLXMAW (Soybean, Williams)
Outline: as §1

[7] = tested on: CASSIA OBTUSIFOLIA, L.; experiment: Preemergence herbicidal evaluation, CASOB (Sicklepod)
Outline: as §1

[8] = tested on: AMBROSIA ARTEMISIIFOLIA, L.; experiment: Preemergence herbicidal evaluation, AMBEL (Ragweed, Common)
Outline: as §1

[9] = tested on: ABUTILON THEOPHRASTI, MEDIC.; experiment: Preemergence herbicidal evaluation, ABUTH (Velvetleaf)
Outline: as §1

[10] = tested on: CASSIA OBTUSIFOLIA, L.; experiment: Postemergence herbicidal evaluation, CASOB (Sicklepod)
Method: as §2, §3

[11] = tested on: IPOMOEA SPP.; experiment: Preemergence herbicidal evaluation, IPOSS (Morningglory Spp.)
Outline: as §1

[12] = tested on: ORYZA SATIVA, L. TEBONNET; experiment: Preemergence herbicidal evaluation, ORYSAT (Rice, Tebonnet)
Outline: as §1

[13] = tested on: CHENOPODIUM ALBUM, L.; experiment: Postemergence herbicidal evaluation, CHEAL (Lambsquarters, Common)
Method: as §2, §3

[14] = tested on: ZEA MAYS L.; experiment: Preemergence herbicidal evaluation, ZEAMX (Corn, Field)
Outline: as §1

[15] = tested on: ECHINOCHLOA CRUS-GALLI, (L) BEAU; experiment: Postemergence herbicidal evaluation, ECHCG (Barnyardgrass)
Outline: (§4)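 Visual 0–9 ratings against untreated control, taken four to five weeks post-spray, score stand, vigor, malformation, size, chlorosis and overall appearance. Treatment was a postemergence spray at about 0.125 to 0.500 kg/ha on roughly two-week-old seedlings.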

[16] = tested on: GALIUM APARINE; experiment: Preemergence herbicidal evaluation, GALAP (Galium)
Outline: as §1

[17] = tested on: ABUTILON THEOPHRASTI, MEDIC.; experiment: Postemergence herbicidal evaluation, ABUTH (Velvetleaf)
Outline: as §4

[18] = tested on: TRITICUM AESTIVUM, CV. APOLLO; experiment: Postemergence herbicidal evaluation, TRZAWO (Wheat, Winter, CV. APOLLO)
Method: as §2, §3

[19] = tested on: ORYZA SATIVA, L. TEBONNET; experiment: Postemergence herbicidal evaluation, ORYSAT (Rice, Tebonnet)
Method: as §2, §3

[20] = tested on: SETARIA VIRIDIS, (L) BEAU; experiment: Postemergence herbicidal evaluation, SETVI (Foxtail, Green)
Outline: as §4

[21] = tested on: GLYCINE MAX(L)MERR. CV. WILLIAMS; experiment: Postemergence herbicidal evaluation, GLXMAW (Soybean, Williams)
Method: as §2, §3

## COC(=O)Cn1c(=O)n(C)c(=O)n(-c2cc(N3C(=O)C4=C(CCCC4)C3=O)ccc2F)c1=O [Compound 5, Methyl 3-[5-(1-cyclohexene-1,2-dicarbox-imido)-2-fluorophenyl]tetrahydro-5-methyl-2,4,6-trioxo-s-triazine-1(2H)-acetate]
[1]; 0.125 kg/ha
  Herbicide rating (0-9) TRZAWO: 0.0
[1]; 0.250 kg/ha
  Herbicide rating (0-9) TRZAWO: 0.0
[1]; 0.500 kg/ha
  Herbicide rating (0-9) TRZAWO: 0.0
[2]; 0.125 kg/ha
  Herbicide rating (0-9) SETVI: 0.0
[2]; 0.250 kg/ha
  Herbicide rating (0-9) SETVI: 0.0
[2]; 0.500 kg/ha
  Herbicide rating (0-9) SETVI: 0.0
[3]; 0.125 kg/ha
  Herbicide rating (0-9) AMBEL: 2.0
[3]; 0.250 kg/ha
  Herbicide rating (0-9) AMBEL: 2.0
[3]; 0.500 kg/ha
  Herbicide rating (0-9) AMBEL: 2.0
[4]; 0.125 kg/ha
  Herbicide rating (0-9) CHEAL: 0.0
[4]; 0.250 kg/ha
  Herbicide rating (0-9) CHEAL: 0.0
[4]; 0.500 kg/ha
  Herbicide rating (0-9) CHEAL: 0.0
[5]; 0.125 kg/ha
  Herbicide rating (0-9) ECHCG: 0.0
[5]; 0.250 kg/ha
  Herbicide rating (0-9) ECHCG: 0.0
[5]; 0.500 kg/ha
  Herbicide rating (0-9) ECHCG: 0.0
[6]; 0.125 kg/ha
  Herbicide rating (0-9) GLXMAW: 0.0
[6]; 0.250 kg/ha
  Herbicide rating (0-9) GLXMAW: 0.0
[6]; 0.500 kg/ha
  Herbicide rating (0-9) GLXMAW: 0.0
[7]; 0.125 kg/ha
  Herbicide rating (0-9) CASOB: 0.0
[7]; 0.250 kg/ha
  Herbicide rating (0-9) CASOB: 0.0
[7]; 0.500 kg/ha
  Herbicide rating (0-9) CASOB: 0.0
[8]; 0.125 kg/ha
  Herbicide rating (0-9) AMBEL: 0.0
[8]; 0.250 kg/ha
  Herbicide rating (0-9) AMBEL: 0.0
[8]; 0.500 kg/ha
  Herbicide rating (0-9) AMBEL: 0.0
[9]; 0.125 kg/ha
  Herbicide rating (0-9) ABUTH: 0.0
[9]; 0.250 kg/ha
  Herbicide rating (0-9) ABUTH: 0.0
[9]; 0.500 kg/ha
  Herbicide rating (0-9) ABUTH: 0.0
[10]; 0.125 kg/ha
  Herbicide rating (0-9) CASOB: 0.0
[10]; 0.250 kg/ha
  Herbicide rating (0-9) CASOB: 0.0
[10]; 0.500 kg/ha
  Herbicide rating (0-9) CASOB: 0.0
[11]; 0.125 kg/ha
  Herbicide rating (0-9) IPOSS: 0.0
[11]; 0.250 kg/ha
  Herbicide rating (0-9) IPOSS: 0.0
[11]; 0.500 kg/ha
  Herbicide rating (0-9) IPOSS: 0.0
[12]; 0.125 kg/ha
  Herbicide rating (0-9) ORYSAT: 0.0
[12]; 0.250 kg/ha
  Herbicide rating (0-9) ORYSAT: 0.0
[12]; 0.500 kg/ha
  Herbicide rating (0-9) ORYSAT: 0.0
[13]; 0.125 kg/ha
  Herbicide rating (0-9) CHEAL: 0.0
[13]; 0.250 kg/ha
  Herbicide rating (0-9) CHEAL: 0.0
[13]; 0.500 kg/ha
  Herbicide rating (0-9) CHEAL: 0.0
[14]; 0.125 kg/ha
  Herbicide rating (0-9) ZEAMX: 0.0
[14]; 0.250 kg/ha
  Herbicide rating (0-9) ZEAMX: 0.0
[14]; 0.500 kg/ha
  Herbicide rating (0-9) ZEAMX: 0.0
[15]; 0.125 kg/ha
  Herbicide rating (0-9) ECHCG: 0.0
[15]; 0.250 kg/ha
  Herbicide rating (0-9) ECHCG: 0.0
[15]; 0.500 kg/ha
  Herbicide rating (0-9) ECHCG: 0.0
[16]; 0.125 kg/ha
  Herbicide rating (0-9) GALAP: 0.0
[16]; 0.250 kg/ha
  Herbicide rating (0-9) GALAP: 0.0
[16]; 0.500 kg/ha
  Herbicide rating (0-9) GALAP: 0.0

## CC(C)OC(=O)Cn1c(=O)n(C)c(=O)n(-c2cc(N3C(=O)C4CSCCN4C3=O)c(F)cc2Cl)c1=O (stereo not drawn) [Compound 12, Isopropyl 3-{2-chloro-4-fluoro-5-[5,6,8,8a-tetrahydro-1,3-dioxo-1H-imidazo[5,1c][1,4]-thiazin-2(3H)-yl]phenyl}tetrahydro-5-methyl-2,4,6-trioxo-s-triazine-1(2H)-acetate]
[1]; 0.125 kg/ha
  Herbicide rating (0-9) TRZAWO: 0.0
[1]; 0.250 kg/ha
  Herbicide rating (0-9) TRZAWO: 0.0
[1]; 0.500 kg/ha
  Herbicide rating (0-9) TRZAWO: 0.0
[3]; 0.125 kg/ha
  Herbicide rating (0-9) AMBEL: 9.0
[3]; 0.250 kg/ha
  Herbicide rating (0-9) AMBEL: 9.0
[3]; 0.500 kg/ha
  Herbicide rating (0-9) AMBEL: 9.0
[17]; 0.125 kg/ha
  Herbicide rating (0-9) ABUTH: 9.0
[17]; 0.250 kg/ha
  Herbicide rating (0-9) ABUTH: 9.0
[17]; 0.500 kg/ha
  Herbicide rating (0-9) ABUTH: 9.0
[4]; 0.125 kg/ha
  Herbicide rating (0-9) CHEAL: 9.0
[4]; 0.250 kg/ha
  Herbicide rating (0-9) CHEAL: 9.0
[4]; 0.500 kg/ha
  Herbicide rating (0-9) CHEAL: 9.0
[18]; 0.125 kg/ha
  Herbicide rating (0-9) TRZAWO: 2.5
[18]; 0.250 kg/ha
  Herbicide rating (0-9) TRZAWO: 2.5
[18]; 0.500 kg/ha
  Herbicide rating (0-9) TRZAWO: 2.5
[5]; 0.125 kg/ha
  Herbicide rating (0-9) ECHCG: 0.0
[5]; 0.250 kg/ha
  Herbicide rating (0-9) ECHCG: 0.0
[5]; 0.500 kg/ha
  Herbicide rating (0-9) ECHCG: 0.0
[7]; 0.125 kg/ha
  Herbicide rating (0-9) CASOB: 9.0
[7]; 0.250 kg/ha
  Herbicide rating (0-9) CASOB: 9.0
[7]; 0.500 kg/ha
  Herbicide rating (0-9) CASOB: 9.0
[10]; 0.125 kg/ha
  Herbicide rating (0-9) CASOB: 9.0
[10]; 0.250 kg/ha
  Herbicide rating (0-9) CASOB: 9.0
[10]; 0.500 kg/ha
  Herbicide rating (0-9) CASOB: 9.0
[12]; 0.125 kg/ha
  Herbicide rating (0-9) ORYSAT: 0.0
[12]; 0.250 kg/ha
  Herbicide rating (0-9) ORYSAT: 0.0
[12]; 0.500 kg/ha
  Herbicide rating (0-9) ORYSAT: 0.0
[13]; 0.125 kg/ha
  Herbicide rating (0-9) CHEAL: 9.0
[13]; 0.250 kg/ha
  Herbicide rating (0-9) CHEAL: 9.0
[13]; 0.500 kg/ha
  Herbicide rating (0-9) CHEAL: 9.0

## C=CCn1c(=O)n(CC=C)c(=O)n(-c2cc(N3C(=O)C4=C(CCCC4)C3=O)c(F)cc2Cl)c1=O [Compound 19, N-[4-Chloro-5-(3,5-diallylhexahydro-2,4,6-trioxo-s-triazin-1-yl)-2-fluorophenyl]-1-cyclohexene-1,2-dicarboximide]
[18]; 0.125 kg/ha
  Herbicide rating (0-9) TRZAWO: 2.0
[18]; 0.250 kg/ha
  Herbicide rating (0-9) TRZAWO: 2.0
[18]; 0.500 kg/ha
  Herbicide rating (0-9) TRZAWO: 2.0
[19]; 0.125 kg/ha
  Herbicide rating (0-9) ORYSAT: 2.0
[19]; 0.250 kg/ha
  Herbicide rating (0-9) ORYSAT: 2.0
[19]; 0.500 kg/ha
  Herbicide rating (0-9) ORYSAT: 2.0
[20]; 0.125 kg/ha
  Herbicide rating (0-9) SETVI: 0.0
[20]; 0.250 kg/ha
  Herbicide rating (0-9) SETVI: 0.0
[20]; 0.500 kg/ha
  Herbicide rating (0-9) SETVI: 0.0
[21]; 0.125 kg/ha
  Herbicide rating (0-9) GLXMAW: 1.0
[21]; 0.250 kg/ha
  Herbicide rating (0-9) GLXMAW: 1.0
[21]; 0.500 kg/ha
  Herbicide rating (0-9) GLXMAW: 1.0
[15]; 0.125 kg/ha
  Herbicide rating (0-9) ECHCG: 0.0
[15]; 0.250 kg/ha
  Herbicide rating (0-9) ECHCG: 0.0
[15]; 0.500 kg/ha
  Herbicide rating (0-9) ECHCG: 0.0
